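Test compounds were applied to cells in 96-well plates for 48 hours at 5 doses. At the GI50, growth is halved.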 Active and inactive are the calls of the source. No stated cut-off is given here; in the data, active = GI50 up to about 1.1 µM and inactive = higher.
Assays:
Experiment in all cases: NCI-60 cell line screen, 48 h
[1] = system: CCRF-CEM
[2] = system: T47D
[3] = system: CAKI-1
[4] = system: DU-145
[5] = system: KM12
[6] = system: EKVX
[7] = system: Malme-3M
[8] = system: COLO 205
[9] = system: 786-0
[10] = system: MDA-MB-231
[11] = system: Hs-578T
[12] = system: SF-268
[13] = system: OVCAR-4
[14] = system: HOP-92
[15] = system: HL-60
[16] = system: U-251
[17] = system: SK-MEL-2
[18] = system: SNB-75
[19] = system: OVCAR-5
[20] = system: HCC 2998

Row | SMILES | GI50 [1] | GI50 [2] | GI50 [3] | GI50 [4] | GI50 [5] | GI50 [6] | GI50 [7] | GI50 [8] | GI50 [9] | GI50 [10] | GI50 [11] | GI50 [12] | GI50 [13] | GI50 [14] | GI50 [15] | GI50 [16] | GI50 [17] | GI50 [18] | GI50 [19] | GI50 [20]
1 | CC1CN=C(N(C(=O)Nc2ccc(F)c(Cl)c2)c2ccccc2)S1 (stereo not given) | 31.3 µM (inactive) | 16.8 µM (inactive) | 21 µM (inactive) | 36.8 µM (inactive) | 26.5 µM (inactive) | 22 µM (inactive) | 30.3 µM (inactive) | 19.3 µM (inactive) | 22.9 µM (inactive) | 17.7 µM (inactive) | 38.5 µM (inactive) | 27.5 µM (inactive) | 48.3 µM (inactive) | 20.3 µM (inactive) | > 10 µM (inactive) | 20.6 µM (inactive) | 17.5 µM (inactive) | 23.2 µM (inactive) | 28.2 µM (inactive) | –
2 | O=C(O)CCc1ccc2c(c1)CC1(Cc3ccccc3C1)C2 | 80 µM (inactive) | > 100 µM (inactive) | – | – | > 100 µM (inactive) | > 100 µM (inactive) | > 100 µM (inactive) | 78 µM (inactive) | > 100 µM (inactive) | > 100 µM (inactive) | > 100 µM (inactive) | – | 49.3 µM (inactive) | > 100 µM (inactive) | – | > 100 µM (inactive) | > 100 µM (inactive) | < 0.01 µM (active) | > 100 µM (inactive) | > 100 µM (inactive)
3 | COC(NC(=O)Nc1ccccc1C)(C(F)(F)F)C(F)(F)F | 40.7 µM (inactive) | 22.4 µM (inactive) | – | > 100 µM (inactive) | > 100 µM (inactive) | – | – | > 100 µM (inactive) | > 100 µM (inactive) | – | > 100 µM (inactive) | > 100 µM (inactive) | > 100 µM (inactive) | > 100 µM (inactive) | > 100 µM (inactive) | 34.5 µM (inactive) | – | > 100 µM (inactive) | > 100 µM (inactive) | > 100 µM (inactive)
4 | COc1ccc(/C=C\c2cc(OC)c(OC)c(OC)c2)cc1OC(=O)CCC(=O)O | < 0.0001 µM (active) | 29.9 µM (inactive) | 0.33 µM (active) | < 0.0001 µM (active) | 0.00043 µM (active) | 0.0149 µM (active) | < 0.0001 µM (active) | 0.857 µM (active) | 0.000263 µM (active) | < 0.0001 µM (active) | < 0.01 µM (active) | < 0.0001 µM (active) | 36 µM (inactive) | – | < 0.0001 µM (active) | < 0.0001 µM (active) | 0.0126 µM (active) | 43 µM (inactive) | – | –
5 | COc1ccc(C(NCCNC(c2ccc(OC)c(OC)c2)c2cc3c(cc2O)OCO3)c2cc3c(cc2O)OCO3)cc1OC (stereo not given) | 0.141 µM (active) | 3.37 µM (inactive) | 2.64 µM (inactive) | 2.8 µM (inactive) | 2.67 µM (inactive) | 6.22 µM (inactive) | 4.5 µM (inactive) | 2.89 µM (inactive) | 1.82 µM (inactive) | 3.13 µM (inactive) | 3.24 µM (inactive) | 1.63 µM (inactive) | 4.83 µM (inactive) | 6.71 µM (inactive) | 1.71 µM (inactive) | 2.87 µM (inactive) | 6.81 µM (inactive) | 3.56 µM (inactive) | 4.57 µM (inactive) | –
6 | C[N+](C)(N)CCC[N+](C)(C)N | > 100 µM (inactive) | > 100 µM (inactive) | > 100 µM (inactive) | > 100 µM (inactive) | > 100 µM (inactive) | > 100 µM (inactive) | > 100 µM (inactive) | > 100 µM (inactive) | > 100 µM (inactive) | > 100 µM (inactive) | > 100 µM (inactive) | > 100 µM (inactive) | > 100 µM (inactive) | > 100 µM (inactive) | > 100 µM (inactive) | > 100 µM (inactive) | > 100 µM (inactive) | > 100 µM (inactive) | > 100 µM (inactive) | –

Source: ChEMBL document CHEMBL1201862, “PubChem BioAssay data set” (2004)
